Data published in PubChem BioAssay (NCI).
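Method: 48-hour compound exposure of cells in 96-well plates, five concentrations, linear interpolation of endpoints. GI50: concentration for 50% inhibition of growth. TGI marks complete inhibition of growth.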

Legend:
Assay in all cases: NCI tumour cell line growth inhibition, 48 h
[1] = system: 786-0 renal
[2] = system: A498 renal
[3] = system: A549 NSCLC
[4] = system: ACHN renal
[5] = system: BT-549 breast
[6] = system: CAKI-1 renal
[7] = system: CCRF-CEM leukemia
[8] = system: COLO 205 colon
[9] = system: DU-145 prostate
[10] = system: EKVX NSCLC
[11] = system: HCC-2998 colon
[12] = system: HCT-116 colon
[13] = system: HCT-15 colon
[14] = system: HL-60(TB) leukemia
[15] = system: HOP-62 NSCLC
[16] = system: HOP-92 NSCLC
[17] = system: HS 578T breast
[18] = system: HT29 colon
[19] = system: IGROV1 ovarian
[20] = system: K-562 leukemia
[21] = system: KM12 colon
[22] = system: LOX IMVI melanoma
[23] = system: M14 melanoma
[24] = system: MALME-3M melanoma
[25] = system: MCF7 breast
[26] = system: MDA-MB-231 breast
[27] = system: MDA-MB-435
[28] = system: MOLT-4 leukemia
[29] = system: NCI-H226 lung
[30] = system: NCI-H23 lung
[31] = system: NCI-H460 lung
[32] = system: NCI-H522 lung
[33] = system: NCI/ADR-RES ovarian
[34] = system: OVCAR-3 ovarian
[35] = system: OVCAR-4 ovarian
[36] = system: OVCAR-5 ovarian
[37] = system: OVCAR-8 ovarian
[38] = system: PC-3 prostate
[39] = system: RPMI-8226 leukemia
[40] = system: RXF 393 renal
[41] = system: SF-268 CNS
[42] = system: SF-295 CNS
[43] = system: SF-539 CNS
[44] = system: SK-MEL-2 melanoma
[45] = system: SK-MEL-28 melanoma
[46] = system: SK-MEL-5 melanoma
[47] = system: SK-OV-3 ovarian
[48] = system: SN12C renal
[49] = system: SNB-19 CNS
[50] = system: SNB-75 CNS
[51] = system: SR leukemia
[52] = system: SW-620 colon
[53] = system: T-47D breast
[54] = system: TK-10 renal
[55] = system: U251 CNS
[56] = system: UACC-257 melanoma
[57] = system: UACC-62 melanoma
[58] = system: UO-31 renal

C[C@@H]1Cc2c([nH]c3ccccc23)[C@@H](c2c(F)cc(/C=C/C(=O)O)cc2F)N1CC(C)(C)F
GI50 [1]: 14.2 µM
TGI [1]: 28.1 µM
GI50 [2]: 8.77 µM
TGI [2]: 23.7 µM
GI50 [3]: 11.6 µM
TGI [3]: 26.6 µM
GI50 [4]: 12.7 µM
TGI [4]: 28 µM
GI50 [5]: 11.3 µM
TGI [5]: 26.3 µM
GI50 [6]: 18.8 µM
TGI [6]: 61.8 µM
GI50 [7]: 12 µM
TGI [7]: 33.8 µM
GI50 [8]: 16.5 µM
TGI [8]: 39.8 µM
GI50 [9]: 19.1 µM
TGI [9]: > 62.3 µM
GI50 [10]: 12.7 µM
TGI [10]: 39.2 µM
GI50 [11]: 10.4 µM
TGI [11]: 25.6 µM
GI50 [12]: 12.7 µM
TGI [12]: 26.7 µM
GI50 [13]: 8.14 µM
TGI [13]: 24.3 µM
GI50 [14]: 15.8 µM
TGI [14]: 39.4 µM
GI50 [15]: 15.5 µM
TGI [15]: 31.7 µM
GI50 [16]: 15 µM
TGI [16]: 30.8 µM
GI50 [17]: 12.8 µM
TGI [17]: 45.4 µM
GI50 [18]: 14.5 µM
TGI [18]: 31.3 µM
GI50 [19]: 16.4 µM
TGI [19]: 37.2 µM
GI50 [20]: 13.6 µM
TGI [20]: 46.1 µM
GI50 [21]: 11 µM
TGI [21]: 28.7 µM
GI50 [22]: 12.3 µM
TGI [22]: 27.2 µM
GI50 [23]: 14 µM
TGI [23]: 34.5 µM
GI50 [24]: 15.5 µM
TGI [24]: 34.3 µM
TGI [25]: 25.6 µM
GI50 [26]: 18.4 µM
TGI [26]: 38 µM
GI50 [27]: 14 µM
TGI [27]: 31 µM
GI50 [28]: 11.2 µM
TGI [28]: 34.9 µM
GI50 [29]: 18.2 µM
TGI [29]: 45.2 µM
GI50 [30]: 11.2 µM
TGI [30]: 33.8 µM
GI50 [31]: 11.5 µM
TGI [31]: 27.8 µM
GI50 [32]: 14 µM
TGI [32]: 33.6 µM
GI50 [33]: 14.7 µM
TGI [33]: 36.5 µM
GI50 [34]: 13.8 µM
TGI [34]: 29.1 µM
GI50 [35]: 15.2 µM
TGI [35]: 52.8 µM
GI50 [36]: 22.2 µM
TGI [36]: 46.8 µM
GI50 [37]: 11.9 µM
TGI [37]: 38.4 µM
GI50 [38]: 10.2 µM
TGI [38]: 27.4 µM
GI50 [39]: 8.1 µM
TGI [39]: 37.6 µM
GI50 [40]: 11.7 µM
TGI [40]: 26.2 µM
GI50 [41]: 14.2 µM
TGI [41]: 31.8 µM
GI50 [42]: 8.65 µM
TGI [42]: 22.6 µM
GI50 [43]: 14.5 µM
TGI [43]: 32.4 µM
GI50 [44]: 13.8 µM
TGI [44]: 32.8 µM
GI50 [45]: 13.1 µM
TGI [45]: 30.9 µM
GI50 [46]: 10.7 µM
TGI [46]: 24.4 µM
GI50 [47]: 18.6 µM
TGI [47]: 36.7 µM
GI50 [48]: 11.9 µM
TGI [48]: 38.3 µM
GI50 [49]: 13.7 µM
TGI [49]: 32.3 µM
GI50 [50]: 12.9 µM
TGI [50]: 28.6 µM
GI50 [51]: 15.9 µM
TGI [51]: 48.4 µM
GI50 [52]: 12.5 µM
TGI [52]: 29 µM
GI50 [53]: 0.0916 µM
TGI [53]: 51.3 µM
GI50 [54]: 15.9 µM
TGI [54]: 39.4 µM
GI50 [55]: 10.5 µM
TGI [55]: 25 µM
GI50 [56]: 21.7 µM
TGI [56]: 49.7 µM
GI50 [57]: 3.9 µM
TGI [57]: 17.3 µM
GI50 [58]: 8.1 µM
TGI [58]: 21.6 µM
